According to ChEMBL document CHEMBL1201862, “PubChem BioAssay data set” (2004):
Active and inactive are the calls of the source.

Experiments:
[1] = test system: Vero; test: mammalian cell viability reduction – secondary assay, cytotoxicity control for West Nile virus antiviral project, dose response (AID 1650); format: functional; settings: Chlorocebus sabaeus
[2] = cytotoxicity toward MDA-MB-231 breast cancer cells – cell-based, CellTiter-Glo luminescence, cherry-pick, cytotoxicity control for RAD54 inhibitor project, dose response (AID 651692); format: functional
[3] = test system: A549; test: viability loss in A549 cells – cell-based, plate reader, cherry-pick samples, cytotoxicity control, dose response (AID 687028); format: functional; settings: Homo sapiens
[4] = biological target: T1, DNA repair and recombination protein RAD54-like (Homo sapiens, UniProt Q92698); test: RAD54 Holliday junction migration blockers – biochemical, fluorescence, cherry-picked samples, dose series, confirmation (AID 651657); format: functional
T1 sequence (Q92698 whole entry): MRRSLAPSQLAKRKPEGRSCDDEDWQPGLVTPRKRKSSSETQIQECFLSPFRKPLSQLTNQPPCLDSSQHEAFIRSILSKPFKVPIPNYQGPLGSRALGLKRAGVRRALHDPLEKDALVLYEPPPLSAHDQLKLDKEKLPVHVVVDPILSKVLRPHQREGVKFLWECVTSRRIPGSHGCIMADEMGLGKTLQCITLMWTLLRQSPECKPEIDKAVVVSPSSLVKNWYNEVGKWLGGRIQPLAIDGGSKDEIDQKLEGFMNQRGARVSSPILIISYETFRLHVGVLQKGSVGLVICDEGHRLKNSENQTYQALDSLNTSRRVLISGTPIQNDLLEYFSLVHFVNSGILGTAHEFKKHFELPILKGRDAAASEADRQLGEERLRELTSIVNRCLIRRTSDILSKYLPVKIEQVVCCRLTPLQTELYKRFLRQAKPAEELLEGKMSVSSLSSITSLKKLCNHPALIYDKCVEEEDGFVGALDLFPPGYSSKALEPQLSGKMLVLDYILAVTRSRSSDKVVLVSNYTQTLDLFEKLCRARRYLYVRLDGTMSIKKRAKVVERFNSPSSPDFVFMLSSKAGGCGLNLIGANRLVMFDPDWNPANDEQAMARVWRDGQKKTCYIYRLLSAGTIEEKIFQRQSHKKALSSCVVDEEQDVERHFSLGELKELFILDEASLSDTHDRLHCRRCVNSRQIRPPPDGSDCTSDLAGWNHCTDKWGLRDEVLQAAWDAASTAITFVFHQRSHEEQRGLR

[5] = viability of uninfected HEp-2 cells – cell-based, HTS, cytotoxicity control for RSV inhibitor project, dose response (AID 2410); format: functional; settings: human respiratory syncytial virus
[6] = biological target: Beta-lactamase (Salmonella choleraesuis (strain SC-B67), UniProt Q5J463); test: Epi-absorbance-based counterscreen for selective VIM-2 inhibitors: dose response biochemical high throughput screening assay to identify inhibitors of TEM-1 serine-beta-lactamase.
[7] = biological target: T2, Beta Lactamase (Pseudomonas aeruginosa, UniProt Q932Y6); test: concentration-dependent VIM-2 enzyme inhibition – biochemical, epi-absorbance readout, selective inhibitors, dose response (AID 1919)
[8] = biological target: T3, Beta-lactamase (Pseudomonas aeruginosa, UniProt Q79MP6); test: […] counterscreen for selective VIM-2 inhibitors: dose response biochemical high throughput screening assay to identify inhibitors of IMP-1 metallo-beta-lactamase.
[9] = biological target: T2, Beta Lactamase; test: VIM-2 CCF2 hydrolysis inhibition, assay artifact filter – biochemical, FRET readout, CCF2 substrate, artefact control for selective VIM-2 inhibitor project, dose response (AID 1926)
[10] = biological target: T3, Beta-lactamase; test: inhibition of IMP-1 beta-lactamase activity – biochemical, epi-absorbance, selectivity assay for VIM-2 inhibitor project, dose response (AID 1920)
[11] = luciferase reporter signal reduction – luminescence, H4-C neuroglioblastoma cells, dose response (AID 2458); format: functional, cell-based;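 further: H4 neuroglioblastoma cells stably carrying a luciferase reporter gene fusion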
[12] = toxicity toward HepG2 liver cells – cell-based, plate reader, cherry-pick, antagonist series, cytotoxicity control, dose response (AID 743416); format: functional
[13] = blockers of bursicon-stimulated LGR2 cAMP reporter – cell-based, HEK293, CRE-luciferase reporter, cherry pick, set 2, dose response (AID 743343); format: functional;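 further: transfected cells were stimulated with diluted bursicon conditioned medium after compound addition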
[14] = alpha-synuclein stem-loop translation blockers – luminescence, H4 neuroglioblastoma cells, dose confirmation, confirmation (AID 2454); format: functional, cell-based;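 further: H4 neuroglioblastoma cells carrying an alpha-synuclein 5'UTR luciferase reporter; potency for inhibition of the luciferase signal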
[15] = A549 cell cytotoxicity, dose response, cytotoxicity control, plate reader, cherry-pick, antagonist series (AID 743412); format: functional, cell-based
[16] = cells; format: functional, cell-based
[17] = Luminescence Cell-Based Dose Response HTS to Identify Inhibitors of 5'UTR Stem-Loop Driven Prion Protein mRNA Translation in H4 Neuroglioblastoma Cells. [Related pubchem assays: 1827 (Project Summary), 1813 (Primary HTS)]; format: functional
[18] = viability loss in HEK293 cells – cell-based, plate reader, cherry-picked samples, cytotoxicity control, dose response (AID 743446); format: functional
[19] = biological target: Photoreceptor-specific nuclear receptor (Homo sapiens, UniProt Q9Y5X4); format: functional, cell-based;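 further: CHO-S cells with Gal4-NCOR and VP16-NR2E3 two-hybrid luciferase reporter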
[20] = blockade of melanocortin 4 receptor signaling – cell-based, plate reader, cherry pick, counter-screen for LGR2 antagonist project, dose response (AID 743444); format: functional;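 further: transfected HEK 293 cells stimulated with alpha-MSH peptide; potency of inhibitors of the alpha-MSH evoked signal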
[21] = alpha-synuclein stem-loop luciferase translation blockers – H4 neuroglioma cells, luminescence, confirmation (AID 1988); format: functional, cell-based
[22] = biological target: T4, Heat shock factor protein 1 (Mus musculus, UniProt P38532); test: decrease of HSF1-responsive luciferase luminescence – cell-based, NIH3T3, dose retest, confirmation (AID 2382); format: functional;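 further: NIH3T3 fibroblasts with HSF1-driven luciferase reporter stressed by proteasome inhibitor MG132; luminescence from HSF1-driven luciferase expression after 8 hours of MG132 stress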
T4 sequence (P38532 whole entry): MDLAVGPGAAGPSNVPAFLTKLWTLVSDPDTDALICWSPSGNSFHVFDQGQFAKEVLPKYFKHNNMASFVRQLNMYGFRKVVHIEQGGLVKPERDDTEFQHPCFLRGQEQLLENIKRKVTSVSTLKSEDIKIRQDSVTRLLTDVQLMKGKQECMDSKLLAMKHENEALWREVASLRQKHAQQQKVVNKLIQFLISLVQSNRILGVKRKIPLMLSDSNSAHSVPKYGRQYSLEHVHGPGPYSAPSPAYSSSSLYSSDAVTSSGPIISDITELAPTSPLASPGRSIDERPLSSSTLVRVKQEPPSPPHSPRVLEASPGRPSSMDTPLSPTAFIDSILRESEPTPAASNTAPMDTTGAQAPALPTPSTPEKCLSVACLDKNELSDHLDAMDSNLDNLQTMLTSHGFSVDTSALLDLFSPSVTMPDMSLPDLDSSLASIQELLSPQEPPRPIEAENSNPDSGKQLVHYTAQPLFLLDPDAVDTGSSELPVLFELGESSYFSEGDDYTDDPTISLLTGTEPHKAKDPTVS

[23] = activation of miR-122 Renilla sensor silencing – cell-based, Huh7 psiCHECK-miR122, Renilla luciferase, cherry-picked, dose response (AID 651956); format: functional;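 further: huh7 hepatoma cells stably carrying a psiCHECK-2 miR-122 sensor plasmid; renilla luciferase signal reporting endogenous miR-122 activity after 48 h compound exposure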
[24] = cells; format: functional, cell-based; remark: listed apart in the source
[25] = cells; format: functional, cell-based; remark: listed apart in the source
[26] = biological target: T5, Trace amine-associated receptor 1 (Homo sapiens, UniProt Q96RJ0); test: Fluorescence-based cell-based high throughput dose response assay to identify agonists of the human trace amine associated receptor 1 (TAAR1).; format: functional
[27] = biological target: T5, Trace amine-associated receptor 1; test: Counterscreen for agonists of the human trace amine associated receptor 1 (hTAAR1): Fluorescence-based cell-based high throughput dose response assay to identify hTAAR1 agonist that also desensitize TAAR1 receptor response.; format: functional

T2 sequence (Q932Y6 whole entry): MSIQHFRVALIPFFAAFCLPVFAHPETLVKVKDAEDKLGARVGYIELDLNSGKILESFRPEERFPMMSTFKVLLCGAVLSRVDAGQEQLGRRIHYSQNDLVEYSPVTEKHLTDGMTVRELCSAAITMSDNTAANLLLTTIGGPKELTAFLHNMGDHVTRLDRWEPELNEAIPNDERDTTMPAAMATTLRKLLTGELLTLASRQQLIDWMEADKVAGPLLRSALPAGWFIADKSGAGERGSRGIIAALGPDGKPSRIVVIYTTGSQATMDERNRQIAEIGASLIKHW
T3 sequence (Q79MP6 whole entry): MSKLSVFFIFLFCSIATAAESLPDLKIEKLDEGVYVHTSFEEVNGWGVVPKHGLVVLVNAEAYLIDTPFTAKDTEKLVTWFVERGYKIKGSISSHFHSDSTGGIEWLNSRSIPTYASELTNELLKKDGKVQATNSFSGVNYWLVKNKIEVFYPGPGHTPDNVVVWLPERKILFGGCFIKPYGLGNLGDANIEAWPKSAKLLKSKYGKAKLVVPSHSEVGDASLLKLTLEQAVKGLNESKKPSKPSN
T5 sequence (Q96RJ0 whole entry): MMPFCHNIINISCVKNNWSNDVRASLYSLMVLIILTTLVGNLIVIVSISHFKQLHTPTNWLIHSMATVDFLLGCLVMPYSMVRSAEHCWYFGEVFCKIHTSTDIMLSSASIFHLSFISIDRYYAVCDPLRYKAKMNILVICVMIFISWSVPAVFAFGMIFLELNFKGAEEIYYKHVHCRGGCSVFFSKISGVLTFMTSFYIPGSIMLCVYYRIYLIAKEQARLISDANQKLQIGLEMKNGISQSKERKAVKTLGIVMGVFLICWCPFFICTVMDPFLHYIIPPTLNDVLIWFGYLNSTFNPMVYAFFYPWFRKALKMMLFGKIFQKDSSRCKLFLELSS
Chain of Beta-lactamase (Salmonella choleraesuis (strain SC-B67), UniProt Q5J463) (Q5J463 whole entry): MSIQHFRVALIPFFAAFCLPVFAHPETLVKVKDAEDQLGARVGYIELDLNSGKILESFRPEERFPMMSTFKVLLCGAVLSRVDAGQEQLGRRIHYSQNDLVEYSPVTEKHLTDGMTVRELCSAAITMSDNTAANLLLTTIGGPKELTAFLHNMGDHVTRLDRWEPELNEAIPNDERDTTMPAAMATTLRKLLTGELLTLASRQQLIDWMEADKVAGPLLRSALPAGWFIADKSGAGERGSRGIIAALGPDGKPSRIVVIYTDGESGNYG
Chain of Photoreceptor-specific nuclear receptor (Q9Y5X4 whole entry, the tested form may be a part): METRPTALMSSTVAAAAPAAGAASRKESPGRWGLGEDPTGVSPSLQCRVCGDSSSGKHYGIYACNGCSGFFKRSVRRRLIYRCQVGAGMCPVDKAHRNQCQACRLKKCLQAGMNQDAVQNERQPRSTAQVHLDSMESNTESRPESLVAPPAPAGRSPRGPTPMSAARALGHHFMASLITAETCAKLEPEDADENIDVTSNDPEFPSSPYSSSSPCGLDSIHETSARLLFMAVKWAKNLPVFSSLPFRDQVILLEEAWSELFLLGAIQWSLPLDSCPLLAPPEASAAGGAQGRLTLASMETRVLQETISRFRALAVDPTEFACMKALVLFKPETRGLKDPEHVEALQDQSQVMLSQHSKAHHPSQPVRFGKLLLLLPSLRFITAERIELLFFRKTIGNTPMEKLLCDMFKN

With `CN1CCCC1CCNc1ccc2sc3ccccc3c(=O)c2c1` (configuration not stated) the CC50 [1] was 21.1 µM (active), the AC50 [2] was 48.8 µM (active) and the AC50 [3] was 20.2 µM (active). The AC50 [4] was 13.6 µM (active) and the CC50 [5] was 11.5 µM (active).
For `O=C(C1=C(O)C(=O)N(Cc2cccnc2)C1c1ccccn1)c1ccccc1` (configuration not stated), the IC50 [6] was > 59.6 µM (inactive), the IC50 [7] was 5 µM (active) and the IC50 [8] was > 59.6 µM (inactive). For the same compound, the IC50 [9] was 2.17 µM (active) and the IC50 [10] was > 59.6 µM (inactive).
For `Cc1cc(C(=O)Nc2ccc(Cl)cc2)c(C)n1-c1ccccc1`, the EC50 [11] was 0.409 µM (active), the AC50 [12] was > 52 µM (inactive) and the AC50 [13] was < 0.068 µM (active). For the same compound, the EC50 [14] was 0.149 µM (active), the AC50 [15] was > 52 µM (inactive) and the EC50 [16] was 1.43 µM (active). The EC50 [17] was 8.36 µM (active), the AC50 [18] was > 52 µM (inactive) and the IC50 [19] was 0.017 µM (active). The AC50 [20] was < 0.068 µM (active), the EC50 [21] was < 0.1 µM (active) and the EC50 [22] was < 0.16 µM (active).
For `CC(C)(C)c1ccc(S(=O)(=O)NCCc2ccncc2)cc1`, the AC50 [23] was 25 µM (active).
With `O=C(O)/C=C/C(=O)NCCC1=CCCCC1` the EC50 [24] was > 29.9 µM (inactive), the IC50 [25] was > 29.9 µM (inactive) and the EC50 [26] was 1.39 µM (active). For the same compound, the IC50 [27] was 7.65 µM (active).
